Measured values: PMC9933440 (Crystal Growth & Design, 2022)

Columns and labels:
[1] = pKa (base) – pKa (acid)
[2] = ref 77 (4AP), ref 78 (4DMP), ref 79 (PPZ); cited from earlier work
[3] = pH <3; cited from earlier work
[4] = physchem; details: pH 6.5
Protocol: Solubility experiments were conducted in sodium phosphate buffer solutions at pH 6.5 and 37 °C to simulate intestinal physiological conditions. For each experiment, an excess crystalline solid was sieved through a 300 μm sieve and introduced into a flask with a screw top containing 100 mL of the medium. The solution was stirred at 200 rpm using a magnetic stir bar for 48 h to reach the equilibrium state. […] After each sampling, the volume of the liquid removed from the suspension was not compensated. The withdrawn suspension was filtered through 0.2 μm nylon filters and diluted prior to high-performance liquid chromatography (HPLC) analysis. The solubility experiment for each crystal form was repeated in triplicate. After the last sample collection, the remaining solid material in the suspension was filtered, dried, and characterized by IR and PXRD.
A C18 HPLC column (YMC-Pack ODS-A column, 4.6 mm × 250 mm, 5 μm) with a flow rate of 1 mL min^–1 was employed, and the column temperature was set at 25 °C. The binary mobile phase consisted of acetonitrile and sodium phosphate buffer (pH 6.5) in a volume ratio of 25:75. The samples were diluted appropriately with the mobile phase, and the absorbance was measured at 347 nm.

In the case of `Nc1ccncc1` [4AP, 4-aminopyridine], the “ΔpKa for MEL” value ([1]; hydroxyl group of MEL) is listed as 8.08, the “ΔpKa for PRM” value ([1]; hydroxyl group of PRM) is listed as 7.31 and the “pKa in water (salt former)” value [2] is listed as 9.17[77].

For `Cc1cnc(NC(=O)C2=C(O)c3ccccc3S(=O)(=O)N2C)s1` [MEL, meloxicam], the “degradation at lower pH” value [3] is listed as “significant degradation” and the “time to highest solubility / maximum dissolved concentration / equilibrium” value [4] is listed as 90 min.
